In brackets after ≈: the same amount, converted by molar mass.
Experiments:
[1] = target: human GPR40 receptor (Homo sapiens, UniProt O14842); assay: IP1 accumulation measurements using the IPOne assay system; type: cell-based; settings: 1321N1 cells stably expressing human GPR40; 1 h stimulation at 37° C.
Protocol: IP1 accumulation measurements using the IPOne assay system—1321N1 cells stably expressing human GPR40 receptor (Euroscreen, Belgium) are seeded 24 h before the assay in white 384-well plates in culture medium containing 10% FCS, 1% Na-Pyruvate and 400 μg/mL G418. IP1 is assayed according to the manufacturer's description (Cisbio Bioassays, France). In brief, the assay is started by substitution of the culture medium by stimulation buffer (Hepes 10 mM, CaCl2 1 mM, MgCl2 0.5 mM, KCl 4.2 mM, NaCl 146 mM, glucose 5.5 mM and LiCl 50 mM, pH 7.4). Cells are stimulated for 1 h at 37° C., 5% CO2 by addition of the compounds that are diluted in stimulation buffer containing LiCl. Assays are stopped by adding HTRF-conjugates (IP1-d2 and Anti-IP1 cryptate Tb) and lysis buffer, provided by the manufacturer. After an incubation time of 1 h at room temperature plates are measured using an EnVision™, Perkin Elmer. The obtained fluorescence ratios at 665/615 […] are then used to calculate the pEC50 values using Assay Explorer 3.3 Software (Accelrys, Inc.) by interpolation using an IP1 reference curve and subsequent sigmoidal curve fitting allowing for a variable hill slope.

[2] = Aqueous solubility from DMSO stock, LC-UV; type: physicochemical; settings: aqueous buffer, kinetic from dmso stock; buffer pH 2.2, 24 h shaking, 2.5% DMSO
Protocol: The aqueous solubility of the compounds of the invention is determined by comparing the amount dissolved in buffer to the amount in an acetonitrile/water (1/1) solution. Starting from a 10 mM DMSO stock solution aliquots are diluted with acetonitrile/water (1/1) or buffer, respectively. After 24 h of shaking, the solutions are filtrated and analyzed by LC-UV. The amount dissolved in buffer is compared to the amount in the acetonitrile solution. Solubility is usually being measured from 0.001 to 0.125 mg/mL at a DMSO concentration of 2.5%. If more than 90% of the compound is dissolved in buffer, the value is marked with “>”.

[3] = target: T1, cytochrome P450 2C8-isoenzyme (Homo sapiens, UniProt P10632); assay: Inhibition of CYP-2C8 (amodiaquine deethylation, human liver microsomes); type: in vitro ADME; settings: human liver microsomes 0.05 mg/mL, amodiaquine 1 μM, 37° C.
T1 construct: is assayed at 37° C. with human liver microsomes; from tissue; host or cells: human liver microsomes
T1 sequence (P10632 1-490): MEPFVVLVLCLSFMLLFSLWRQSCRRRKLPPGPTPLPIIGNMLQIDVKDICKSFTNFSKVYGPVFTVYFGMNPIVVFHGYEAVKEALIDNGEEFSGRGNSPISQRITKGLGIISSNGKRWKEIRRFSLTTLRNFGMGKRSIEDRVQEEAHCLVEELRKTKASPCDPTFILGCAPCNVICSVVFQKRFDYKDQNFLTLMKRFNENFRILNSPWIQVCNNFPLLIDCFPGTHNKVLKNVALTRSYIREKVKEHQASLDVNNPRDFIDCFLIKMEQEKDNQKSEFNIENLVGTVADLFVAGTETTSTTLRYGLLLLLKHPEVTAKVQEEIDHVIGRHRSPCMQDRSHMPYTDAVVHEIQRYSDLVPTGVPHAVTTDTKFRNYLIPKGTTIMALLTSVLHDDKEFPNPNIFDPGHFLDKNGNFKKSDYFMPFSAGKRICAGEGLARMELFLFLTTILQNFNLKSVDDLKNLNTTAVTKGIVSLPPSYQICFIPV
Protocol: All assays are carried out on a robotic system in 96 well plates. The final incubation volume contains TRIS buffer (0.1 M), MgCl2 (5 mM), human liver microsomes (0.05 mg/mL), amodiaquine (1 μM) and the test compound at five different concentrations or no compound (high control) in duplicate (e.g. highest concentration 10-50 μM with subsequent serial 1:4 dilutions). Following a short preincubation period, reactions are started with the cofactor (NADPH, 1 mM) and stopped by cooling the incubation down to 8° C. and subsequently by addition of one volume of acetonitrile. An internal standard solution—the stable isotope d5-desethylamodiaquine—is added after quenching of incubations. Peak area analyte (=metabolite formed) and internal standard is determined by LC-MS/MS. The resulting peak area ratio analyte to internal standard in these incubations is compared to a control activity containing no test compound. Within each of the assay runs, the IC50 of a positive control inhibitor (Montelukast) is determined. Experimental IC50 values are calculated by least square regression according to the following equation: % control activity=(100% control activity/(1+(I/IC50)S))−B with I=inhibitor concentration; S=slope factor; B=background activity (lower plateau of the inhibition curve) If the inhibition of the reaction is already >50% at the lowest concentration of the test compound, the IC50 is assigned “<lowest concentration tested” (usually <0.4 μM). If the inhibition of the reaction is still <50% at the highest concentration of the test compound, the IC50 is assigned “>highest concentration tested” (usually >50 μM).

[4] = target: T2, CYP2C9 (Homo sapiens, UniProt P11712); assay: Inhibition of CYP-2C9 (diclofenac hydroxylation, human liver microsomes); type: in vitro ADME; settings: probe diclofenac (10 μM), hydroxylation, human liver microsomes 0.1 mg/mL, 37° C.
T2 construct: from tissue; host or cells: human liver microsomes
Protocol: All assays are carried out on a robotic system in 96 well plates. The final incubation volume contains TRIS buffer (0.1 M), MgCl2 (5 mM), human liver microsomes (0.1 mg/mL), diclofenac (10 μM) and the test compound at five different concentrations or no compound (high control) in duplicate (e.g. highest concentration 10-50 μM with subsequent serial 1:4 dilutions). Following a short preincubation period, reactions are started with the cofactor (NADPH, 1 mM) and stopped by cooling the incubation down to 8° C. and subsequently by addition of one volume of acetonitrile. An internal standard solution—the stable isotope 13C6-hydroxydiclofenac—is added after quenching of incubations. Peak area analyte (=metabolite formed) and internal standard is determined by LC-MS/MS. The resulting peak area ratio analyte to internal standard in these incubations is compared to a control activity containing no test compound. Within each of the assay runs, the IC50 of a positive control inhibitor (sulfaphenazole) is determined. Experimental IC50 values are calculated by least square regression according to the following equation: % control activity=(100% control activity/(1+(I/IC50)S)))−B with I=inhibitor concentration S=slope factor B=background activity (lower plateau of the inhibition curve) If the inhibition of the reaction is already >50% at the lowest concentration of the test compound, the IC50 is assigned “<lowest concentration tested” (usually <0.4 μM). If the inhibition of the reaction is still <50% at the highest concentration of the test compound, the IC50 is assigned “>highest concentration tested” (usually >50 μM).

Chain of human GPR40 receptor (O14842 whole entry): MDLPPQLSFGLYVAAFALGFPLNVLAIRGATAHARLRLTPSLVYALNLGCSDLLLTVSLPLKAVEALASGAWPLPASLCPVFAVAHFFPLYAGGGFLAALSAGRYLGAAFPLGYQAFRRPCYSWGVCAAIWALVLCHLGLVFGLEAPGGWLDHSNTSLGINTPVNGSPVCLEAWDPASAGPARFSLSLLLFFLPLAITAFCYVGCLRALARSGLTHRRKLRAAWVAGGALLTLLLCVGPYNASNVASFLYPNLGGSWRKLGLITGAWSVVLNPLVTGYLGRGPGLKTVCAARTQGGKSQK
T2 sequence (P11712 whole entry): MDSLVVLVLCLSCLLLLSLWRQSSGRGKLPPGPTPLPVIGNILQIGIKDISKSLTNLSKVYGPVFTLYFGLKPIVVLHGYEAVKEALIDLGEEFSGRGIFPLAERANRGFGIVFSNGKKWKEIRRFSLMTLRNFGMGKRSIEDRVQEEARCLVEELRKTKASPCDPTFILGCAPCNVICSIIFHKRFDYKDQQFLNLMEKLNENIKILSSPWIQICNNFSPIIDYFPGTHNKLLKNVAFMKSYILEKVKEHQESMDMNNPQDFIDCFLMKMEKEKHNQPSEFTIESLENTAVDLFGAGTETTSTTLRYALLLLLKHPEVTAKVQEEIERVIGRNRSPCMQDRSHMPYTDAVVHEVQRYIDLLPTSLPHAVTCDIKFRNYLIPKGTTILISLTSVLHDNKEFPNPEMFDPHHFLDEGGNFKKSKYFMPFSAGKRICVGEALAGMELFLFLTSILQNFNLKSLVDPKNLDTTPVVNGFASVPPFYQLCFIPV

Q: For `CC(C)c1ccccc1-c1cccc2c1CC[C@H]2Nc1cnc2c(c1)OCC2CC(=O)O` (stereo partly drawn) [Example 129, 2-(6-{[(1R)-4-[2-(Propan-2-yl)phenyl]-2,3-dihydro-1H-inden-1-yl]amino}-2H,3H-furo[3,2-b]pyridin-3-yl)acetic acid], which EC50 [1] is on record?
A: The EC50 was 0.184 µM.

Q: What about the solubility at 24 h [2] of the same compound?
A: The solubility at 24 h was 4 µg/mL (≈ 9.33 µM).

Q: And the IC50 [3]?
A: Its IC50 is 12 µM.

Q: And the IC50 [4]?
A: Its IC50 is 50 µM.
